Read-outs that look alike come from different tables or passages of the source.
Tests used:
GPR84 F187A = molecular target: T1, GPR84 F187A (Homo sapiens, UniProt Q9NQS5, F187A); test: BRET β-arrestin-1 recruitment assay, HEK293T cells; type: cell-based; conditions: for EC50: F187A, read-out: β-arrestin-1 pEC50 ± SEM (converted)
T1 construct: FLAG (N); eYFP (C); expressed in transfected cells; host or cells: HEK293T, transient
Procedure: (§1) As a control, cells were transfected with 100:1 ratio of empty plasmid and the appropriate arrestin isoform fused to nano-luciferase. After 24 h, cells were seeded at 50,000 cells per well in poly-D-lysine-coated white 96-well plates and incubated at 37°C overnight. After 24 h, cells were washed twice with Hank’s balanced salt solution (HBSS), pH 7.4, and 10 μl/well of the nano-luciferase substrate coelenterazine-h (Nanolight Technologies) was added to a final concentration of 5 μM. Cells were incubated in the dark for 10 min at 37°C, after which 10 μl/well of the agonist compound was added, and the cells were incubated for another 5 minutes. 15 min after coelenterazine-h addition, reading of emission signals were performed on a PHERAstar FS plate reader (BMG Labtech) at 475 and 535 nm, representing nano-luciferase and eYFP emission signals, respectively. The net bioluminescence resonance energy transfer (BRET) ratio (mBRET) was calculated as follows: mBRET=(BRET^sample−BRET^control)*1000whereBRET=Emission^535nm/Emission^475nm

GPR84 L336A = molecular target: T2, GPR84 L336A (Homo sapiens, UniProt Q9NQS5, L336A); test: BRET β-arrestin-1 recruitment assay, HEK293T cells; type: cell-based; conditions: for EC50: L336A, read-out: β-arrestin-1 pEC50 ± SEM (converted)
T2 construct: FLAG (N); eYFP (C); expressed in transfected cells; host or cells: HEK293T, transient
Procedure: as §1

GPR84 S331A = molecular target: T3, GPR84 S331A (Homo sapiens, UniProt Q9NQS5, S331A); test: BRET β-arrestin-1 recruitment assay, HEK293T cells; type: cell-based; conditions: for Emax: HEK-293T
T3 construct: FLAG (N); eYFP (C); expressed in transfected cells; host or cells: HEK293T, transient
Procedure: as §1

GPR84-WT = molecular target: T4, GPR84-WT (Homo sapiens, UniProt Q9NQS5); test: BRET β-arrestin-1 recruitment assay, HEK293T cells; type: cell-based; conditions: for Emax: HEK-293T
T4 construct: FLAG (N); eYFP (C); expressed in transfected cells; host or cells: HEK293T, transient
Procedure: as §1

GPR84 = GPR84 (Homo sapiens, UniProt Q9NQS5); test: CHO-K1-based HitHunter cAMP inhibition assay; type: cell-based; conditions: wild type GPR84; for EC50: CHO-K1 cells, forskolin 25 μM, read-out: cAMP pEC50 ± SEM (converted); for Emax: normalised to capric acid (100 μM), read-out: cAMP %Emax ± SEM
Procedure: CHO-K1 cells stably expressing human GPR84 (DiscoverX 95-0158C2) were seeded in 384-well plates at 15,000 cells per well in 20 μL of F12 medium supplemented with 10% fetal bovine serum (FBS), 19 mM HEPES, and 1% penicillin-streptomycin. After overnight incubation at 37 °C and 5% CO2, the medium was removed and replaced with PBS containing 0.1% BSA. Cells were stimulated for 30 min with forskolin (25 μM) and test compounds prepared in Dulbecco’s PBS (DPBS) with 0.1% BSA. Compounds were dissolved in DMSO and diluted appropriately. cAMP levels were quantified using the HitHunter® cAMP Assay for Small Molecules (DiscoverX 90-0075SM2) according to the manufacturer’s protocol. Luminescence was measured 18 h post-assay using a PHERAstar® FS plate reader (BMG Labtech).

[1] = molecular target: Leu336Ala GPR84 (GPR84-Gi2 fusion protein) (Homo sapiens, UniProt Q9NQS5, L336A); test: Competition binding assay with orthosteric antagonist [3H]140
Procedure: Binding was initiated by the addition of 5 μg membrane protein generated from Flp-In™ T-REx™ cells induced to express the receptor construct of interest with 100 ng/ml doxycycline. Nonspecific binding of the radioligand was determined in the presence of 10 μM compound 837. All assays were performed at 25 °C for 1 h before termination by the addition of ice-cold phosphate-buffered saline (PBS) and vacuum filtration through GF/C glassfibre filter-bottom 96-well microplates using a UniFilter FilterMate Harvester (Revvity). Each well was washed three times with ice-cold PBS and filters were allowed to dry for 2–3 h before addition of 50 μl of Ultima Gold™ XR. Radioactivity was quantified by liquid scintillation spectrometry.

Leu336Ala GPR84 = molecular target: T5, Leu336Ala GPR84 (Homo sapiens, UniProt Q9NQS5, L336A); test: pThr263/pThr264 immunoblot of immunoprecipitated GPR84-eYFP; type: cell-based; conditions: 1 μM
T5 construct: expressed in transfected cells
Procedure: (§2) eYFP-linked receptor constructs were immunoprecipitated from 200 μl cell lysates using GFP-Trap® agarose beads (Proteintech) according to manufacturer’s instructions. Immunocomplexes were washed three times in washing buffer, resuspended in 100 μl 2 × SDS-PAGE sample buffer and incubated at 60 °C for 10 min. Following centrifugation at 2500g for 5 min, 20 μl of immunoprecipitated proteins was resolved by SDS-PAGE on 4% to 12% BisTris gels. After separation, the proteins were transferred electrophoretically onto nitrocellulose membrane, which was then blocked using 5% bovine serum albumin (BSA) in Tris-buffered saline (TBS, 50 mM Tris-Cl, 150 mM NaCl, pH 7.6) for 1 h at room temperature on an orbital shaker. The membrane was then incubated with appropriate primary antibody in 5% BSA in TBS supplemented with 0.1% Tween (TBS-T) overnight at 4 °C. Anti-pThr^263/pThr^264 antiserum was diluted 1:2000 and anti-GFP was diluted 1:10,000. Subsequently, the membrane was washed (3 × 10 min with TBS-T) and incubated for 2 h with anti-rabbit secondary antibody diluted 1:10,000 in 5% BSA in TBS-T. After washing (3 × 10 min with TBS-T), proteins were detected using an Odyssey imaging system (Licor) according to the manufacturer’s instructions.

Phe187Ala GPR84 = molecular target: T6, Phe187Ala GPR84 (Homo sapiens, UniProt Q9NQS5, F187A); test: as above; type: cell-based; conditions: 1 μM, compared to OX04954 and OX04539
T6 construct: expressed in transfected cells
Procedure: as §2

[2] = pKa measurement (Sirius T3 UV-metric and pH-metric titration); type: physicochemical; conditions: 25 °C, ionic strength 0.15 M; read-out: measured pKa of the hydroxyl group
Procedure: OX04529 pKa was determined using a UV-metric titration method on a Sirius T3 with a combination Ag/AgCl pH electrode. 5 μL of OX04529 stock solution was added to 25 μL of a neutral linear buffer. The sample was then pre-acidified to pH < 2.0 using 0.5 M HCl and titrated three times until pH > 12.0 using 0.5 M KOH. Titrations were carried out at a constant ionic strength of 0.15 M (adjusted with KCl) and maintained at 25.0 ±0.5 °C. UV absorbance data across varying wavelengths and pH values were recorded. Molar absorption profiles and species distribution plots were generated in the Sirius T3 software, from which apparent pKa value was calculated.
OX04529 pKa was measured using pH-metric titration on the Sirius T3 system. The solution was pre-acidified to pH < 3.0 with 0.5 M HCl and titrated three times until pH > 11.0 using 0.5 M KOH.

[3] = Extended Data Table 4, read-out: β-arrestin-1 pEC50 ± SEM (converted)
[4] = β-arrestin-1 recruitment, Extended Data Table 6

Compound	EC50 (GPR84 F187A) [nM]	efficacy in promoting interaction with β-arrestin-1 (GPR84 F187A; Phe187Ala GPR84, HEK293T)	EC50 (GPR84 L336A) [nM]	efficacy in promoting interaction with β-arrestin-1 (GPR84 L336A; Leu336Ala GPR84, HEK293T)	EC50 (GPR84 S331A) [nM]	Emax (GPR84 S331A) [%]	EC50 (GPR84-WT; [3]) [nM]	Emax (GPR84-WT; [4]) [%]	pEC50 ± SEM (GPR84-WT; [4])	EC50 (GPR84) [nM]	Emax (GPR84) [%]	Ki [1] [nM]	phosphorylation of Thr263 and Thr264 (immunoblot) (Leu336Ala GPR84)	phosphorylation of Thr263 and Thr264 (immunoblot) (Phe187Ala GPR84)	pKa [2]	EC50 (GPR84-WT; β-arrestin-1 recruitment, Extended Data Table 6, read-out: pEC50 ± SEM (converted)) [nM]
[O-][n+]1cc(O)cc(CCc2ccc(Cl)c(C(F)(F)F)c2)c1 [OX04529]	3.8	substantial efficacy	1.86	full agonist	28.8	24 ± 6	49	18 ± 4	7.10 ± 10.11	0.012	97 ± 0.2	1.51	full agonist	partial effect	6.26	–
Cc1cc(CCCc2cc(O)c[n+]([O-])c2)ccc1Cl [OX04954]	5.75	–	2.14	–	30.9	66 ± 7	39.8	71 ± 4	–	0.0126	98 ± 1.8	–	–	–	–	31.6

Source: doi:10.1101/2025.07.30.667614, “Steric control of signaling bias in the immunometabolic receptor GPR84” (bioRxiv, 2025)
